# Several values for one entry are separate records, joined by “and”; a condition that tells them apart may be missing. Identical values can stand only once. Like-named read-outs stand apart in the source and are kept apart here. Positions of bridges follow the written chain, without caps; N, C: chain ends. Non-standard residues stand in square brackets, D forms with d. Residues, ends and D or L forms follow the SMILES beside them. *: point of attachment. Phe(3,4,5-F3) = N[C@@H](Cc1cc(F)c(F)c(F)c1)C(=O)O; Myristoyl = CCCCCCCCCCCCCC(=O)*; Nle = CCCC[C@H](N)C(=O)O; Aib = CC(C)(N)C(=O)O
# Tests used:
# human apelin receptor [1] = target: T1, human apelin receptor (Homo sapiens, UniProt P35414); assay: Cerep radioligand binding assay on CHO-K1 cells expressing the human apelin receptor; set-up: host or cells: CHO-K1
# T1 sequence (P35414 1-380): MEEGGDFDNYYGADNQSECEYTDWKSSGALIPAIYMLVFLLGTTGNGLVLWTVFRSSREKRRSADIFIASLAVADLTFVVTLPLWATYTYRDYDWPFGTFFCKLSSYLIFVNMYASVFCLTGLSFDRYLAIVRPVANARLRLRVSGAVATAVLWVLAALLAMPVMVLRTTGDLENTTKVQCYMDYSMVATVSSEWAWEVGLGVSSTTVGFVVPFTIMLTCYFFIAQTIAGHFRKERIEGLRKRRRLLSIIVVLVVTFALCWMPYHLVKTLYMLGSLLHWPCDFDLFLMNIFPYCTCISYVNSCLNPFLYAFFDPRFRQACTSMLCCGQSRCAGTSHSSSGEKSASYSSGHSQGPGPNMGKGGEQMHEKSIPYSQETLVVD
# Experimental: Binding assays were performed by Cerep (Celle L'Evescault, France) on Chinese Hamster Ovary (CHO-K1) cells expressing the human apelin receptor. […] The results were expressed as a percent of control specific binding ((measured specific binding/control specific binding)×100) and as a percent inhibition of control specific binding (100−((measured specific binding/control specific binding)×100)) obtained in the presence of the test compounds. […] The inhibition constants (Ki) were calculated using the Cheng Prusoff equation (Ki=IC50/(1+(L/KD)), where L=concentration of radioligand in the assay, and KD=equilibrium dissociation constant of the radioligand for the receptor).
# human forearm = assay: Human forearm studies; assay type: in vivo
# human apelin receptor [2] = target: T1, human apelin receptor; assay: Competition binding in homogenate of human left ventricle (HLV)
# Experimental: Equilibrium was broken by centrifugation (20,000 g for 10 min, 4° C.). Pellets were washed with Tris-HCl buffer (50 mmol/L, pH 7.4, 4° C.), re-centrifuged and bound radioactivity in the final pellets counted. Data from triplicate experiments were analysed using the iterative non-linear curve fitting programs EBDA and LIGAND (KELL package, Biosoft, UK) or GraphPad Prism 6 to derive values of affinity (expressed as either the equilibrium dissociation constant KD or the negative log10 of the dissociation constant, pKi±sem) and receptor density (BMAX±sem in fmoles bound per mg protein).
# glioblastoma = settings: ref. [60], cited from earlier work; for anti-tumor / anti-cancer effects in glioblastoma: models of glioblastoma
# human apelin receptor [3] = target: T1, human apelin receptor; assay: DRx β-arrestin assay (PathHunter eXpress AGTRL1 CHO-K1); assay type: cell-based; set-up: host or cells: CHO-K1; settings: for Kb: DRx β-Arrestin pA2; for bias between cAMP and β-arrestin pathway inhibition: comparison of β-arrestin and cAMP pA2 of Table 3
# Experimental: (§1) cAMP (cAMP Hunter™ eXpress AGTRL1 CHO-K1 GPCR Assay, DiscoverX Corporation, Ltd. Birmingham, UK) and β-arrestin (PathHunter® eXpress AGTRL1 CHO-K1 β-Arrestin GPCR Assay, DiscoverX Corporation, Ltd. Birmingham, UK) assays were performed according to the manufacturer's instructions. The cAMP assay measures the canonical signalling pathway through the G-protein. The β-arrestin assay measures the alternative signalling pathway and receptor internalisation.
# For recruitment of β-arrestin, CHO-K1 cells artificially expressing the human apelin receptor were seeded in Cell Plating medium into 96-well plates and incubated for 48 hours at 37° C. in 5% CO2. Concentration response curves were constructed to test peptides (1 pmol/L-30 μmol/L) which were diluted in Cell Plating medium and added to the cells for 90 minutes at 37° C. If no response was obtained then test peptides were investigated as antagonists. […] Detection reagents were then added for a 2-hour incubation at room temperature. […] If no agonist response was obtained, test compounds were investigated for antagonist activity by repeating [Pyr]apelin-13 concentration response curves in the absence and presence of a single concentration (1-30 μmol/L of test peptide). Data were analysed as described for the cAMP assay using the Gaddum/Schild EC50 function in GraphPad Prism 6 to determine values of pA2.
# human apelin receptor [4] = target: T1, human apelin receptor; assay: DRx cAMP assay (cAMP Hunter eXpress AGTRL1 CHO-K1), forskolin-induced cAMP accumulation; assay type: cell-based; set-up: host or cells: CHO-K1; settings: for Kb: DRx cAMP pA2, antagonism of [Pyr1]apelin-13 inhibition of forskolin-stimulated cAMP; for DRx cAMP pA2: antagonism of [Pyr1]apelin-13 inhibition of forskolin-stimulated cAMP
# Experimental: Antagonist activity at the apelin receptor was measured in two assays.
# as §1
# Cells were then incubated with a mixture of Lysis Buffer, cAMP Buffer D and Detection Reagents for 1 hour at room temperature, followed by a 3 hour incubation with cAMP Reagent A at room temperature. Chemiluminescence was read using the LumiLITE™ Microplate Reader (DiscoverX). Concentration-response data for agonists, measured in relative light units (RLU), were analysed using a 4 parameter logistic equation in GraphPad Prism 6 (La Jolla, CA, USA) to determine values of potency expressed as the pD2 value (negative logo of the EC50 (where EC50 is the concentration producing half maximal response)), and maximum response (EMAX). Mean data from replicate experiments were normalised as percentage inhibition of forskolin-stimulated cAMP production.
# [5] = system: endothelium-denuded saphenous vein; settings: human tissue, ref. [15]; cited from earlier work
# human apelin receptor [6] = target: T1, human apelin receptor; settings: human cardiac tissue, ref. [15]; cited from earlier work
# [7] = [Glp65,Nle75,Tyr77][125I]apelin-13, read-out: Ki (binding affinity at the apelin receptor, Cerep)
Compound,DRx β-Arrestin pA2 (human apelin receptor [3]),Kb (human apelin receptor [3]),Ki (human apelin receptor [1]; [7]),Kb (human apelin receptor [4]),DRx cAMP pA2 (human apelin receptor [4]),anti-tumor / anti-cancer effects in glioblastoma (glioblastoma),bias between cAMP and β-arrestin pathway inhibition (human apelin receptor [3]),further results
"CC(C)C[C@@H]1NC(=O)[C@H](CCCNC(=N)N)NC(=O)[C@@H]2CCCN2C(=O)[C@H](CCCNC(=N)N)NC(=O)[C@@H](NC(=O)[C@H](Cc2c[nH]cn2)NC(=O)[C@H](CCCCN)NC(=O)[C@@H]2CSSC[C@H](N)C(=O)N[C@@H](CCCNC(=N)N)C(=O)N3CCC[C@H]3C(=O)N[C@@H](CCCNC(=N)N)C(=O)N[C@@H](CC(C)C)C(=O)N2)CSSC[C@@H](C(=O)O)NC1=O [MM54, cyclo(1-6)CRPRLC-KH-cyclo(9-14)CRPRLC] (H-CRPRLCKHCRPRLC-OH; disulfide 1-6, 9-14; N-terminus and C-terminus assumed)",6.63,117 nM and 234 nM,–,–,–,anti-tumor properties,–,"Ki (human apelin receptor [1]; Ki (binding affinity at the apelin receptor, Cerep), [Glp65,Nle75,Tyr77][125I]apelin-13): 82 nM; functional activity in human forearm studies (human forearm): functional agonist activity indicated by vasodilation; Ki (human apelin receptor [2]; HLV pKi): 275 nM and 355 nM; combination with the anti-cancer compound tomozolomide (glioblastoma; model of glioblastoma): synergistic properties"
"CCCCCCCCCCCCCC(=O)N[C@@H](CS)C(=O)N[C@@H](CCCNC(=N)N)C(=O)N1CCC[C@H]1C(=O)N[C@@H](CCCNC(=N)N)C(=O)N[C@@H](CCCC)C(=O)N[C@@H](CS)C(=O)N[C@@H](CCCCN)C(=O)N[C@@H](Cc1c[nH]cn1)C(=O)N[C@@H](CS)C(=O)N[C@@H](CCCNC(=N)N)C(=O)NC(C)(C)C(=O)N[C@@H](CCCNC(=N)N)C(=O)N[C@@H](CCCC)C(=O)N[C@@H](Cc1cc(F)c(F)c(F)c1)C(=O)O [MM300, Myristoyl-CRPR-Nle-CKHCR-Aib-R-Nle-(3,4,5-trifluorophenylalanine)] (Myristoyl-CRPR[Nle]CKHCR[Aib]R[Nle][Phe(3,4,5-F3)]-OH; C-terminus assumed)",8.96,1.1 nM and 3.16 nM,13 nM,–,9.66,–,bias towards either C-AMP,–
"Apelin-13(F13A): apelin-13 analogue reported as a functional antagonist, may act as an apelin receptor agonist in vitro",–,–,–,–,–,–,–,constriction of endothelium-denuded saphenous vein [5]: effectively constricts; competition for binding with [125I]-(Pyr1)apelin-13 in the left ventricle (human apelin receptor [6]): competes for binding

# Further lines, with some results ahead:
DRx β-Arrestin pA2 (human apelin receptor [3]),Kb (human apelin receptor [3]),Ki (human apelin receptor [1]; [7]),Kb (human apelin receptor [4]),DRx cAMP pA2 (human apelin receptor [4]),Compound,anti-tumor / anti-cancer effects in glioblastoma (glioblastoma),bias between cAMP and β-arrestin pathway inhibition (human apelin receptor [3]),further results
7.68,20.9 nM,19 nM,42.7 nM and 77.6 nM,7.37,"CCCC[C@H](NC(=O)[C@H](CCCNC(=N)N)NC(=O)C(C)(C)NC(=O)[C@H](CCCNC(=N)N)NC(=O)[C@H](CS)NC(=O)[C@H](Cc1c[nH]cn1)NC(=O)[C@H](CCCCN)NC(=O)[C@H](CS)NC(=O)[C@H](CCCC)NC(=O)[C@H](CCCNC(=N)N)NC(=O)[C@@H]1CCCN1C(=O)[C@H](CCCNC(=N)N)NC(=O)[C@@H](N)CS)C(=O)N[C@@H](Cc1cc(F)c(F)c(F)c1)C(=O)O [MM193, CRPR-Nle-CKHCR-Aib-R-Nle-(3,4,5-trifluorophenylalanine)] (H-CRPR[Nle]CKHCR[Aib]R[Nle][Phe(3,4,5-F3)]-OH)",significant anti-cancer effects,–,"Ki (human apelin receptor [2]; read-out: HLV pKi (converted)): 759 nM; antagonism of [pyr1]apelin-13 mediated β-arrestin recruitment (human apelin receptor [3]; 1 μM, FIG. 1a): antagonised by addition of MM193 in a competitive manner; DRx β-Arrestin pA2 (human apelin receptor [3]; cho-k1 cells, 90 min): pA2 = 7.68; antagonism of [pyr1]apelin-13 inhibition of forskolin stimulated cAMP accumulation (human apelin receptor [4]; 1 μM, FIG. 1b): antagonised by addition of MM193 in a competitive manner"
–,2.69 nM and 2.29 nM,17 nM,20 nM and 55 nM,–,"CCCC[C@H](NC(=O)[C@H](CCCNC(=N)N)NC(=O)C(C)(C)NC(=O)[C@H](CCCNC(=N)N)NC(=O)[C@H](CS)NC(=O)[C@H](CCCCN)NC(=O)[C@H](Cc1c[nH]cn1)NC(=O)[C@H](CS)NC(=O)[C@H](CCCC)NC(=O)[C@H](CCCNC(=N)N)NC(=O)[C@@H]1CCCN1C(=O)[C@H](CCCNC(=N)N)NC(=O)[C@@H](N)CS)C(=O)N[C@@H](Cc1cc(F)c(F)c(F)c1)C(=O)O [MM302, CRPR-Nle-CHKCR-Aib-R-Nle-(3,4,5-trifluorophenylalanine)] (H-CRPR[Nle]CHKCR[Aib]R[Nle][Phe(3,4,5-F3)]-OH; N-terminus and C-terminus assumed)",–,almost a log unit of bias towards inhibition of the β-arrestin pathway,–

# Source: patent US11976137B2, “Compounds for use as apelin receptor antagonists” (Cambridge Enterprise Limited, priority 2018, dated 2024)
